Results on 5 compounds are retold here after patent publication US8110703B2, “Retinoid derivative and pharmaceutical composition and use thereof” (Anhui Medical University, priority 2008, dated 2012).

Where “and” joins values, the source holds several entries; their conditions need not be identical. Identical values can stand only once. Marks after values point to notes of the source that are not given here.

For series [1], the system named is A549 lung cancer cells. The experiment in a line: MTT cell growth and proliferation experiment, A549. Type of series: cell-based. More on the design: key to Inhibition Rate: (control OD570 − test OD570)/control OD570, as fraction. The protocol:
1.1 Reagents 12 retinoic acid derivatives with the final concentrations of 1 ug/ml, 5 ug/ml and 10 ug/ml are synthesized by the Pharmaceutical College of Anhui Medical University using DMSO and anhydrous ethanol, separately packaged for storage at −20° C. and kept out of the light when used, and the final concentration of DMSO is less than 0.1%. MTT is purchased from Sigma Corp. The Coulter DNA detection kit is presented by the Central Lab of Anhui Provincial Hospital. AFP and γ-GT are provided by the Clinical Lab of No. 105 Hospital of PLA. Apoptosis-Hoechst staining kit is purchased from Beyotime Company.
1.2 Cell Culture A549, and HpeG2 cells are stored by our lab. Cell growth condition: DMEM (from GIBICO Company) culture solution is added with 10% of calf serum (purchased from the Hangzhou Sijiqing Biological Engineering Material Co., Ltd.) to culture in a cell culture incubator (37° C., 5% CO2) with saturated humidity.
1.3 Cell Growth and Proliferation Experiments MTT process is used. Cells in the logarithmic phase are picked and seeded on a 96-hole culture board with a cell concentration of 5×10^7/L. Each hole of the board is 200 ul. The next day after the adherence, the original solution is discarded, and the culture solution is added. The cells are divided into 1 ug/ml retinoic acid derivative groups, 5 ug/ml retinoic acid derivative groups, 10 ug/ml retinoic acid derivative groups, blank control groups, cell control groups, solvent control groups (1‰ DMSO and anhydrous ethanol) (17 in total) according to the concentrations thereof, incubated for 3d, added with MTT (5 g/L) of 20 ul/hole for incubation at 37° C. for 4 h. The original solution is carefully discarded and dried, and DMSO of 20 ul/hole is added to dissolve crystals, followed by vibrating for 10 min and determining the OD value at 570 nm. Each concentration is corresponding to 5 holes, and each group calculates the average of 3 experiments to calculate the inhibition rate to the cell growth according to the optical density (OD) average of each hole in each group and the following equation: inhibition rate %=(control hole OD570−experimental hole OD570)/control hole OD5700*100%. The process above is repeated for three times. The second experiment takes the maximum concentration (10 […]) for culture respectively for 1, 2, 3 and 7 days and repeat for three times.

Series [2] concerns HepG2 cells. The experiment in a line: AFP secretory volume of HepG2 cells. The class given is cell-based. Conditions: for AFP: HepG2 cells.
Series [3] concerns HepG2 cells. Briefly: γ-GT specific activity of HepG2 cells. Type of series: cell-based.
The conditions of series [4]: patient, dosage 200 mg/day; cited from earlier work.
In series [5] the test system is apoptosis. The following applies: cited from earlier work.
Where [6] appears, read: A549, MTT time gradient, 10 ug/ml, 1 d.
Where [7] appears, read: A549, MTT time gradient, 10 ug/ml, 1 d, fraction.
The mark [8] stands for this setting: A549, MTT time gradient, 10 ug/ml, 2 d.
[9] abbreviates: A549, MTT time gradient, 10 ug/ml, 2 d, fraction.
[10] abbreviates: A549, MTT time gradient, 10 ug/ml, 3 d.
[11] abbreviates: A549, MTT time gradient, 10 ug/ml, 3 d, fraction.
Where [12] appears, read: A549, MTT time gradient, 10 ug/ml, 7 d.
Where [13] appears, read: A549, MTT time gradient, 10 ug/ml, 7 d, fraction.
Where [14] appears, read: A549, MTT OD 570 nm, 1 ug/ml, 3 d, solvent DMSO (D).
[15] abbreviates: A549, MTT OD 570 nm, 5 ug/ml, 3 d, solvent DMSO (D).
[16] abbreviates: A549, MTT OD 570 nm, 10 ug/ml, 3 d, solvent DMSO (D).
Where [17] appears, read: A549, MTT, 1 ug/ml, 3 d, solvent DMSO (D), given as fraction.
The mark [18] stands for this setting: A549, MTT, 5 ug/ml, 3 d, solvent DMSO (D), given as fraction.
The mark [19] stands for this setting: A549, MTT, 10 ug/ml, 3 d, solvent DMSO (D), given as fraction.

Consider `CC1=C(/C=C/C(C)=C/C=C/C(C)=C/C(=O)Nc2ccc(O)cc2)C(C)(C)CCC1` [Fenretinide, reference compound], for which the “OD Value (x ± s)” value in series [1] (A549, MTT time gradient, in DMSO, 1 d, concentration not given) is reported as 0.883 ± 0.062; in series [1] (A549, MTT time gradient, in DMSO, 2 d, concentration not given) it was 1.360 ± 0.052; in series [1] (A549, MTT time gradient, in DMSO, 3 d, concentration not given) it was 0.845 ± 0.034; in series [1] (A549, MTT time gradient, in DMSO, 7 d, concentration not given), 1.835 ± 0.030; in series [1] (A549, MTT time gradient, in ethanol, 1 d, concentration not given) it was 0.887 ± 0.057; in series [1] (A549, MTT time gradient, in ethanol, 2 d, concentration not given), 1.333 ± 0.046. Moreover, the “OD Value (x ± s)” value turned out to be 0.836 ± 0.034 in series [1] (A549, MTT time gradient, in ethanol, 3 d, concentration not given); 1.851 ± 0.030 in series [1] (A549, MTT time gradient, in ethanol, 7 d, concentration not given); 1.724 ± 0.080 in series [1] (A549, MTT, 3 d, Table 1 control drug in DMSO, concentration not given); 1.710 ± 0.056 in series [1] (A549, MTT, 3 d, Table 1 control drug in ethanol, concentration not given). Also, the “Inhibition Rate” value in series [1] (A549, MTT time gradient, in DMSO, 1 d, concentration not given, fraction) came to 0.037; in series [1] (A549, MTT time gradient, in DMSO, 2 d, concentration not given, fraction), 0.070; in series [1] (A549, MTT time gradient, in DMSO, 3 d, concentration not given, fraction), 0.089; in series [1] (A549, MTT time gradient, in DMSO, 7 d, concentration not given, fraction), 0.115; in series [1] (A549, MTT time gradient, in ethanol, 1 d, concentration not given, fraction), 0.033; in series [1] (A549, MTT time gradient, in ethanol, 2 d, concentration not given, fraction) it was 0.089. The “Inhibition Rate” value in series [1] (A549, MTT time gradient, in ethanol, 3 d, concentration not given, fraction) was 0.099; in series [1] (A549, MTT time gradient, in ethanol, 7 d, concentration not given, fraction), 0.108; in series [1] (A549, MTT, 3 d, Table 1 control drug in DMSO, concentration not given, fraction), 0.076; in series [1] (A549, MTT, 3 d, Table 1 control drug in ethanol, concentration not given, fraction), 0.083. Further, the values for the AFP in series [2] (DMSO) and in series [2] (ethanol) were 15.1 µg/L and 14.9 µg/L, respectively. Also, the γ-GT in series [3] (DMSO) stood at 66.6 ± 0.5 U/L; in series [3] (ethanol), 61.0 ± 1.0 U/L. In series [4], the plasma concentration result was “lower than 1 μM”. For the same compound, the “effective concentration required to generate apoptosis in vivo” value in series [5] is 101 µM.

As for `CC1=C(/C=C/C(C)=C/C=C/C(C)=C/C(=O)Oc2ccccc2C(F)(F)F)C(C)(C)CCC1` [Example 2a-03, (2-trifluoromethylphenyl)-(all-trans)-3,7-dimethyl-9-(2,6,6-trimethyl-1-cyclohexen-1-yl)-2,4,6,8-nonatetraenoate], the “OD Value (x ± s)” value came out at 1.639 ± 0.115 in series [1] (A549, MTT OD 570 nm, 1 ug/ml, 3 d, solvent ethanol); 1.555 ± 0.162 in series [1] (A549, MTT OD 570 nm, 5 ug/ml, 3 d, solvent ethanol); 1.382 ± 0.133 in series [1] (A549, MTT OD 570 nm, 10 ug/ml, 3 d, solvent ethanol); 0.902 ± 0.055 in series [1] (setting [6]); 1.066 ± 0.015 in series [1] (setting [8]); 0.635 ± 0.033 in series [1] (setting [10]). The “OD Value (x ± s)” value in series [1] (setting [12]) is recorded as 1.393 ± 0.043. Moreover, the “Inhibition Rate” value in series [1] (setting [7]) stood at 0.016; in series [1] (setting [9]) it was 0.271; in series [1] (setting [11]) it was 0.315; in series [1] (setting [13]), 0.328; in series [1] (A549, MTT, 1 ug/ml, 3 d, solvent ethanol, given as fraction) it was 0.122; in series [1] (A549, MTT, 5 ug/ml, 3 d, solvent ethanol, given as fraction) it was 0.167. The “Inhibition Rate” value in series [1] (A549, MTT, 10 ug/ml, 3 d, solvent ethanol, given as fraction) amounted to 0.260. This compound also gave an AFP in series [2] (DMSO) of 14.7 µg/L. In series [3] (DMSO), this compound registered a γ-GT of 60.6 ± 0.5 U/L.

As for `CC1=C(/C=C/C(C)=C/C=C/C(C)=C/C(=O)Nc2cccc(C(F)(F)F)c2)C(C)(C)CCC1` [Example 3a-02, (3-trifluoromethylphenyl)-(all-trans)-3,7-dimethyl-9-(2,6,6-trimethyl-1-cyclohexen-1-yl)-2,4,6,8-nonatetraenoic acid amide], the “OD Value (x ± s)” value is 1.551 ± 0.083 and 1.517 ± 0.100 in series [1] (setting [14]); 1.510 ± 0.193 and 1.357 ± 0.159 in series [1] (setting [15]); 1.296 ± 0.192 and 0.939 ± 0.040 in series [1] (setting [16]); 0.617 ± 0.072 in series [1] (setting [6]); 0.703 ± 0.025 in series [1] (setting [8]); 0.229 ± 0.010 in series [1] (setting [10]). In series [1] (setting [12]), the “OD Value (x ± s)” value was found to be 0.106 ± 0.035. Further, the “Inhibition Rate” value in series [1] (setting [7]) is 0.327; in series [1] (setting [9]) it was 0.519; in series [1] (setting [11]), 0.753; in series [1] (setting [13]) it was 0.949; in series [1] (setting [17]), 0.169 and 0.187; in series [1] (setting [18]), 0.191 and 0.273. In addition, the “Inhibition Rate” value in series [1] (setting [19]) was 0.305 and 0.497. The compound further yielded an AFP in series [2] (DMSO) of 15.6 µg/L. In addition, the γ-GT in series [3] (DMSO) turned out to be 35.6 ± 1.0 U/L.

Regarding `CC1=C(/C=C/C(C)=C/C=C/C(C)=C/C(=O)Nc2cccc(OC(F)(F)F)c2)C(C)(C)CCC1` [Example 6a-02, (3-trifluoromethoxyphenyl)-(all-trans)-3,7-dimethyl-9-(2,6,6-trimethyl-1-cyclohexen-1-yl)-2,4,6,8-nonatetraenoic acid amide], the “OD Value (x ± s)” value in series [1] (setting [14]) was 1.637 ± 0.146 and 1.614 ± 0.146; in series [1] (setting [15]), 1.613 ± 0.120 and 1.580 ± 0.096; in series [1] (setting [16]) it was 1.362 ± 0.077 and 1.498 ± 0.218; in series [1] (setting [6]) it was 0.774 ± 0.030; in series [1] (setting [8]) it was 1.065 ± 0.045; in series [1] (setting [10]) it was 0.408 ± 0.028. For the same compound, in series [1] (setting [12]), the “OD Value (x ± s)” value came out at 0.666 ± 0.049. In addition, the “Inhibition Rate” value in series [1] (setting [7]) is 0.156; in series [1] (setting [9]), 0.272; in series [1] (setting [11]), 0.561; in series [1] (setting [13]), 0.679; in series [1] (setting [17]), 0.123 and 0.135; in series [1] (setting [18]), 0.136 and 0.154. The “Inhibition Rate” value in series [1] (setting [19]) is 0.270 and 0.197. This compound came in with an AFP in series [2] (DMSO) of 15.6 µg/L. In addition, in series [3] (DMSO), the γ-GT was 42.3 ± 2.0 U/L.

As for `CC1=C(/C=C/C(C)=C/C=C/C(C)=C/C(=O)Oc2ccc(N)cc2C(F)(F)F)C(C)(C)CCC1` [Example 4a-02, (4-amino-2-trifluoromethylphenyl)-(all-trans)-3,7-dimethyl-9-(2,6,6-trimethyl-1-cyclohexen-1-yl)-2,4,6,8-nonatetraenoate], the “OD Value (x ± s)” value in series [1] (setting [14]) is 1.644 ± 0.272 and 2.020 ± 0.317; in series [1] (setting [15]), 1.618 ± 0.087 and 1.979 ± 0.138; in series [1] (setting [16]) it was 1.808 ± 0.143; in series [1] (setting [6]), 0.815 ± 0.045; in series [1] (setting [8]) it was 1.176 ± 0.021; in series [1] (setting [10]), 0.720 ± 0.025. Moreover, the “OD Value (x ± s)” value in series [1] (setting [12]) is listed as 1.144 ± 0.150. Also, the “Inhibition Rate” value in series [1] (setting [7]) amounted to 0.111; in series [1] (setting [9]), 0.196; in series [1] (setting [11]) it was 0.223; in series [1] (setting [13]), 0.448. The “effects on AFP secretory volume (statistics, in words)” value in series [2] (HepG2, compared with the control groups, P less than 0.05) is on record as “meaningful in statistics”. Besides, in series [2] (ethanol), the AFP is 10.4* ug/L. In series [3] (ethanol), the γ-GT is recorded as 32.6 ± 1.5 U/L.
